Key:
[1] = Solubility of N-protected-3-phenylisoserine in the extraction solvents; assay type: physicochemical; settings: solvent 1,2-dimethoxyethane
[2] = as above; assay type: physicochemical
Experimental: The same operation as in Example 1 was carried out except that toluene was used instead of tetrahydrofuran as the extraction solvent in the extraction step of Example 1. As a result, (2R,3S)—N-benzoyl-3-phenylisoserine as an intermediate could be hardly extracted into the organic layer. To evaluate the performance of the extraction solvent, solubility of (2R,3S)—N-benzoyl-3-phenylisoserine was investigated for comparison.
The same operation as in Example 1 was carried out except that cyclopentyl methyl ether was used instead of tetrahydrofuran as the extraction solvent in the extraction step of Example 1. As a result, (2R,3S)—N-benzoyl-3-phenylisoserine as an intermediate could be hardly extracted into the organic layer. To evaluate the performance of the extraction solvent, solubility of (2R,3S)—N-benzoyl-3-phenylisoserine was investigated for comparison.
The same operation as in Example 1 was carried out except that methyl-tert-butyl ether was used instead of tetrahydrofuran as the extraction solvent in the extraction step of Example 1. As a result, (2R,3S)—N-benzoyl-3-phenylisoserine as an intermediate could be hardly extracted into the organic layer. To evaluate the performance of the extraction solvent, solubility of (2R,3S)—N-benzoyl-3-phenylisoserine was investigated for comparison.
The same operation as in Example 1 was carried out except that acetonitrile was used instead of tetrahydrofuran as the extraction solvent in the extraction step of Example 1. As a result, (2R,3S)—N-benzoyl-3-phenylisoserine as an intermediate could be hardly extracted into the organic layer. To evaluate the performance of the extraction solvent, solubility of (2R,3S)—N-benzoyl-3-phenylisoserine was investigated for comparison.

[3] = solvent cyclopentyl methyl ether
[4] = solvent methyl-tert-butyl ether

## O=C(N[C@@H](c1ccccc1)[C@@H](O)C(=O)O)c1ccccc1 [(2R,3S)—N-benzoyl-3-phenylisoserine]
[1]; 20° C.
  Solubility (20° C.): 12.7 wt %
[1]; 40° C.
  Solubility (40° C.): 13.6 wt %
[2]; solvent acetonitrile
  Solubility (20° C.): 2.2 wt %
  Solubility (40° C.): 2.9 wt %
[2]; [3]
  Solubility (20° C.): 0.4 wt %
  Solubility (40° C.): 0.4 wt %
[2]; [4]
  Solubility (20° C.): 0.2 wt %
  Solubility (40° C.): 0.4 wt %
[2]; solvent tetrahydrofuran
  Solubility (20° C.): 9.2 wt %
  Solubility (40° C.): 11.6 wt %
[2]; solvent toluene
  Solubility (20° C.): <0.1 wt %
  Solubility (40° C.): <0.1 wt %

## COC(=O)[C@H](O)[C@@H](NC(=O)c1ccccc1)c1ccccc1 [Example 1, (2R,3S)—N-benzoyl-3-phenylisoserine methyl ester]
other
  melting point: 183 to 185 °C

## COC(=O)[C@H](O)[C@@H](NC(=O)OC(C)(C)C)c1ccccc1 [Example 2, (2R,3S)—N-tert-butoxycarbonyl-3-phenylisoserine methyl ester]
other
  melting point: 131 to 133 °C

## CC(C)(C)OC(=O)NC(c1ccccc1)C(O)C(=O)O (stereo not shown) [N-tert-butoxycarbonyl-3-phenylisoserine]
[2]; solvent tetrahydrofuran
  Solubility (20° C.): 10.1 wt %
  Solubility (40° C.): 12.2 wt %

Reference: patent publication US10087139B2, “3-Phenylisoserine derivative production method” (Toray Fine CHhemicals Co., Ltd., priority 2015, dated 2018)
